The source of these data is patent US7479497B2, “Use of quinoline derivatives with anti-integrase effect and applications thereof” (priority 2002, dated 2009).

In one assay the test system is viral DNA. Briefly: Quantification of total viral DNA synthesized and of DNA integrated into the host cell genome after infection (Butler et al.). It is filed as cell-based. Particulars: FIG. 1. Here is the method:
FIG. 1, the quantification of the total viral DNA synthesized 6 hours after infection and the quantity of viral DNA integrated into the genome 8 hours after infection, and
Study of the Quantification of the Total Viral DNA Synthesized and of the DNA Integrated into the Genome of a Host Cell after Infection
The operation described by Butler et al. in Nat. Med. 2001 May; 7 (5): 631-4 is carried out.

The subject of the next assay is virus. To be noted: integrase mutations at V165 and V249, and at C280 for a second virus.
A further assay has as its target T1, integrase of HIV-1 (Human immunodeficiency virus type 1 group M subtype B, UniProt P04585).
T1 construct: incubated for 30 minutes at 30° C. with integrase coupled with Cyanine 3 fluorochrome
Put plainly: Nuclear import test on the integrase of HIV-1 in permeabilized HeLa cells. It is filed as cell-based. Particulars: 30 minutes at 30° C., FIGS. 5 and 6. Here is the method: FIGS. 5 and 6 show the quantification of the fluorescence intensity measured in a nuclear import test on the integrase of HIV-1 in permeabilized HeLa cells in the presence or absence of cytoplasmic extracts.
The import tests in FIG. 5 were carried out as described in Depienne et al. 2001. HeLa cells were permeabilized with Digitonin, then incubated for 30 minutes at 30° C. with integrase coupled with Cyanine 3 fluorochrome in the presence of energy, in the absence of cytosolic extracts and in the presence or absence of increasing concentrations of different molecules as indicated. The cells were then fixed, analyzed by epifluorescence microscopy and acquisitions were carried out with a CCD camera.
For each condition, the fluorescence intensity per surface unit was quantified in 150 to 300 nuclei originating from 3 independent experiments.
The data of FIGS. 6 and 7 were obtained as follows: HeLa cells were permeabilized with digitonin, then incubated for 30 minutes at 30° C. with integrase conjugated to Cyanine 3 fluorochrome and with bovine serum albumin (BSA) conjugated to the standard nuclear localization signal of the T antigen of the SV40 virus (NLS) and with fluorescein (BSA-NLS), in the presence of cytosolic extracts and energy and in the presence or in the absence of increasing concentrations of different molecules as indicated. […]

The target of the next assay is integrase (Human immunodeficiency virus type 1 group M subtype B, UniProt P04585). Put plainly: Integrase inhibitor in vitro. It counts as biochemical.

Regarding `COc1cc(/C=C/c2ccc3ccc(C(=O)[O-])c(O)c3n2)cc(O)c1O.[Na+]` [FZ41, 8-hydroxy-2-[2-[(3,4-dihydroxy,5-methoxyphenyl)ethenyl]]7-quinoline carboxylic acid], the “total viral DNA synthesized” value with viral DNA (6 hours after infection) is recorded as “strong reduction”. Also, in the assay with viral DNA (8 hours after infection), the “viral DNA integrated into the genome” value is “strong reduction”. The “emergence of resistant viruses” value with virus is recorded as “emergence of viruses resistant to the drug”. For the same compound, the “nuclear import of integrase (fluorescence in the nuclei of permeabilized cells)” value on integrase of HIV-1 is recorded as “considerably reduce”. Further, on integrase, the “Integrase inhibitor in vitro” value was “YES”.
